According to ChEMBL document CHEMBL1201862, “PubChem BioAssay data set” (2004):
The source made the active and inactive calls.

Legend:
[1] = molecular target: T1, Long-chain-fatty-acid--AMP ligase FadD28 (Mycobacterium tuberculosis, UniProt P9WQ59); assay: Fluorescence polarization aasay to screen for inhibitors that compete for the binding of FadD28 to a bisubstrate Measured in Biochemical System Using Plate Reader - 2147-01_Inhibitor_Dose_CherryPick_Activity.; format: functional, Mycobacterium tuberculosis H37Rv
T1 sequence (P9WQ59 whole entry): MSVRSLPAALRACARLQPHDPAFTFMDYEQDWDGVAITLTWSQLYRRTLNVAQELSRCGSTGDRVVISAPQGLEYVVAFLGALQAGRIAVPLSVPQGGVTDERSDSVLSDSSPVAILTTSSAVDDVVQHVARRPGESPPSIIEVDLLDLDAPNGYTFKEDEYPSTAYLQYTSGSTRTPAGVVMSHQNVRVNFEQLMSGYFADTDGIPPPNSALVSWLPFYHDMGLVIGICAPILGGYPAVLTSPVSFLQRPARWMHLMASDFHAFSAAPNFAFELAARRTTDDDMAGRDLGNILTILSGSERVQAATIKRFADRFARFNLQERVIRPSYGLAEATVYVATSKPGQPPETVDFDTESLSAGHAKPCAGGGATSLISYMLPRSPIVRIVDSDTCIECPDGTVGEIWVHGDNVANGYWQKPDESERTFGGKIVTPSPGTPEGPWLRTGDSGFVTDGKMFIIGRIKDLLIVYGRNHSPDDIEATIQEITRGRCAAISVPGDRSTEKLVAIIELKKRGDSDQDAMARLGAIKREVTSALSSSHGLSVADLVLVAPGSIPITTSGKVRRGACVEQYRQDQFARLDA

[2] = molecular target: T2, Probable nicotinate-nucleotide adenylyltransferase (Staphylococcus aureus (strain N315), UniProt P65502); format: functional, Staphylococcus aureus subsp. aureus N315;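 on IC50 Mean: confirmatory dose-response retesting of NadD inhibitor hits first found in an ultra-high-throughput screen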
[3] = tested on: Streptococcus sp. 'group A'; assay: growth inhibition of control SK(-) GAS strain, dose response, counter-screen for streptokinase expression inhibitor project, luminescence, kanamycin, BacTiterGlo, confirmation (AID 1900); format: functional, organism-based
Streptococcus = assay: Group A Streptococcus viability loss, dose response, counter-screen for streptokinase expression inhibitor project, luminescence, BacTiterGlo (AID 1915); format: functional, organism-based;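 further: potency for reduction of bacterial viability or growth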
[4] = molecular target: T2, Probable nicotinate-nucleotide adenylyltransferase; format: functional, Staphylococcus aureus subsp. aureus N315; conditions: read-out: IC50_Mean
Streptokinase A = molecular target: T3, Streptokinase A (Streptococcus pyogenes serotype M1, UniProt P10520); assay: S. pyogenes streptokinase expression inhibitors, potency, dose response, plasminogen activation absorbance, OD405 (AID 1914); format: functional, Streptococcus pyogenes M1 GAS;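 further: secreted streptokinase activity via plasminogen activation per viability signal from cell pellet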
T3 sequence (P10520 whole entry): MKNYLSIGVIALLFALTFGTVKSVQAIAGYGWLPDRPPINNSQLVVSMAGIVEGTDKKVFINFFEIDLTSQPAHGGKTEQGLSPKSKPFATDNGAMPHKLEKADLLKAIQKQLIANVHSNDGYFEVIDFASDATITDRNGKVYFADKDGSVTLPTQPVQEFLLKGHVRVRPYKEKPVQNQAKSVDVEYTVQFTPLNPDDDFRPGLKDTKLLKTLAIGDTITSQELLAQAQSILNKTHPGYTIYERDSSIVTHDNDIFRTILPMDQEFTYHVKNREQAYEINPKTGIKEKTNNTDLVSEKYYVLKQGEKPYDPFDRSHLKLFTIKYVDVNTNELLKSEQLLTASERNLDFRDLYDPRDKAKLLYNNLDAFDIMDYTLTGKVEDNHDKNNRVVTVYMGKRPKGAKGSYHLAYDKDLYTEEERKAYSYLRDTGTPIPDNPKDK

[5] = molecular target: T4, Endoribonuclease toxin MazF (Escherichia coli K-12, UniProt P0AE70); assay: fluorescent RNA oligo signal without MazF, dose response, counter-screen for MazEF activator project, biochemical, fluorescence, single-stranded RNase substrate (AID 588502); format: functional
T4 sequence (P0AE70 whole entry): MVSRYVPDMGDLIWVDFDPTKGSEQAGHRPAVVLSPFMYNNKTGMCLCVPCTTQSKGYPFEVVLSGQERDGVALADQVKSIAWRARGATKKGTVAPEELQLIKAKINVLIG

Prothrombin = Prothrombin (Bos taurus, UniProt P00735); assay: thrombin inhibition, dose response, biochemical, fluorescence polarization, uHTS hits (AID 602369); format: functional
[6] = molecular target: T4, Endoribonuclease toxin MazF; assay: MazF toxin RNase activators, dose response, biochemical, fluorescence, single-stranded RNA substrate, uHTS hits (AID 588481); format: functional
[7] = molecular target: 26S proteasome non-ATPase regulatory subunit 14 (Homo sapiens, UniProt O00487); assay: inhibition of proteasome subunit RPN11 – biochemical, fluorescence polarization, uHTS hits, confirmation (AID 602368); format: functional
[8] = molecular target: 72 kDa type IV collagenase (Homo sapiens, UniProt P08253); assay: Dose Response validation of uHTS RPN11 inhibitor hits using a MMP-2 Fluorescence assay.; format: functional
[9] = molecular target: T5, DNA repair protein RAD52 homolog (Homo sapiens, UniProt P43351); format: functional, biochemical
T5 sequence (P43351 whole entry): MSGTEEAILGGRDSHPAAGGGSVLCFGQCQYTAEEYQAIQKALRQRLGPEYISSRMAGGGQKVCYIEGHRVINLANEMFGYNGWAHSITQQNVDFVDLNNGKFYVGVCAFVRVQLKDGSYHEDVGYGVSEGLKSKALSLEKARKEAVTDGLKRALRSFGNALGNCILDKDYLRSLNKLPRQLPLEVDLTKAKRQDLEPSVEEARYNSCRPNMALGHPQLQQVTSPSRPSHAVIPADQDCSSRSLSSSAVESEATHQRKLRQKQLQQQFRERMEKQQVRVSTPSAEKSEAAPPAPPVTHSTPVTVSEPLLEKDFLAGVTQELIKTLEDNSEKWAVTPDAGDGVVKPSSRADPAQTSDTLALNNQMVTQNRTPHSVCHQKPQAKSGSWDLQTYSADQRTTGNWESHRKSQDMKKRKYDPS

[10] = molecular target: T6, Small ubiquitin-related modifier 1 (Homo sapiens, UniProt P63165); assay: inhibitors of SUMO1 peptide binding, dose response, biochemical, fluorescence polarization, uHTS hits (AID 624382); format: functional; conditions: read-out: IC50_Mean
[11] = molecular target: T6, Small ubiquitin-related modifier 1; assay: inhibitors of SUMO1 partner interactions, dose response, biochemical, FRET (AID 624383); format: functional; conditions: read-out: IC50_Mean
Vero = Vero cell cytotoxicity, cytotoxicity control for flavivirus capping enzyme inhibitors (AID 588742); format: functional; conditions: Chlorocebus sabaeus
[12] = molecular target: T7, DNA repair and recombination protein RAD54-like (Homo sapiens, UniProt Q92698); assay: inhibitors of human RAD54 branch migration, confirmation, biochemical, fluorescence, cherry-picked samples, dose series (AID 651657); format: functional
T7 sequence (Q92698 whole entry): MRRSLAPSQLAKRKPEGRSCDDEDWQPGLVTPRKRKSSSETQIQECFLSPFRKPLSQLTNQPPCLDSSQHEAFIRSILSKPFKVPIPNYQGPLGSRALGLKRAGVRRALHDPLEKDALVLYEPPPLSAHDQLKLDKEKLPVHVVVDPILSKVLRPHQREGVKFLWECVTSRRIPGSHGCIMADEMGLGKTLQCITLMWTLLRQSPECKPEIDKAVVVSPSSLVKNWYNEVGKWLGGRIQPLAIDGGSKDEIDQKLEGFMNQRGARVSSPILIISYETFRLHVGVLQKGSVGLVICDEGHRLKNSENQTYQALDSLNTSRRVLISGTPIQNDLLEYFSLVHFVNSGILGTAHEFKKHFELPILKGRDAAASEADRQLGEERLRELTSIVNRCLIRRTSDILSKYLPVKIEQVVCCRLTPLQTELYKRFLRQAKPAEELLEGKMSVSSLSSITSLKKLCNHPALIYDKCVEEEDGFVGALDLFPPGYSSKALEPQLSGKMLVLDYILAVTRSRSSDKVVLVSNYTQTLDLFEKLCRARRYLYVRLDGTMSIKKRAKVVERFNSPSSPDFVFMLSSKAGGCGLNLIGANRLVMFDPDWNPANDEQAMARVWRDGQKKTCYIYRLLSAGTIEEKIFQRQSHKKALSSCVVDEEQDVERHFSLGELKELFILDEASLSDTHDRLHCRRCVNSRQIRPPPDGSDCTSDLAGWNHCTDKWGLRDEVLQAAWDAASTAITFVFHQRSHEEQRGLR

T2 sequence (P65502 whole entry): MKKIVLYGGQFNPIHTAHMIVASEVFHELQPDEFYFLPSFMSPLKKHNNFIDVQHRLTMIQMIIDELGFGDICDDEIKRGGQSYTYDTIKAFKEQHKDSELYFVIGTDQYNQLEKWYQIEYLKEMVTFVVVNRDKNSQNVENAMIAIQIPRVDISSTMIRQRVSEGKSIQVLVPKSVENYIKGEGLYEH
Chain of 72 kDa type IV collagenase (P08253 whole entry): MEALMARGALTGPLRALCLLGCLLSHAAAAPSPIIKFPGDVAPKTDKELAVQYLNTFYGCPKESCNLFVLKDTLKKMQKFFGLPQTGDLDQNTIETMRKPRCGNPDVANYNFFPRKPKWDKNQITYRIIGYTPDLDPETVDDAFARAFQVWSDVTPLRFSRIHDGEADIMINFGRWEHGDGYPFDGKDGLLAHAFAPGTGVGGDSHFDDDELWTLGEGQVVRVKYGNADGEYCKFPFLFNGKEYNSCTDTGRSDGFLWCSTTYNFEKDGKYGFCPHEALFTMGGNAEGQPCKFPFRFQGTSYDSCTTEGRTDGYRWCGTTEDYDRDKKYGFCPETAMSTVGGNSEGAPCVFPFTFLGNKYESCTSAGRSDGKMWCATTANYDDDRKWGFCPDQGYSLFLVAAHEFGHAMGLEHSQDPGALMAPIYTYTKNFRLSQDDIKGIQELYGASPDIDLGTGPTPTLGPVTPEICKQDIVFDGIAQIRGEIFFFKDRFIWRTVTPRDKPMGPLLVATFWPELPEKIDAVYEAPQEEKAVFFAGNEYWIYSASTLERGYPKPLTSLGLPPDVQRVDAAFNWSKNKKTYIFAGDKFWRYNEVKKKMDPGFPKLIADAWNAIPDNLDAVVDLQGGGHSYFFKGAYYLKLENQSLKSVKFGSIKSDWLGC
Chain of 26S proteasome non-ATPase regulatory subunit 14 (O00487 whole entry): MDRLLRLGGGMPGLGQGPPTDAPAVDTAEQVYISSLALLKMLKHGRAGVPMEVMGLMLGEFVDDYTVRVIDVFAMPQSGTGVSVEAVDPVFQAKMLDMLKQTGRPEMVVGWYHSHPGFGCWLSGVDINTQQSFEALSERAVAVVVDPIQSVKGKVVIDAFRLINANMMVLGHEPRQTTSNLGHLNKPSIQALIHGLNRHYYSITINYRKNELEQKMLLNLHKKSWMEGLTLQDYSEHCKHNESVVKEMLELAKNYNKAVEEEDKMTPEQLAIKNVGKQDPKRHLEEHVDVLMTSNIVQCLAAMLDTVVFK
T6 sequence (P63165 whole entry): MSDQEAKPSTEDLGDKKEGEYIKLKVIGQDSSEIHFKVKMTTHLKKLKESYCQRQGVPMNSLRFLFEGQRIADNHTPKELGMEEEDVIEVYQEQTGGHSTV

CCN(CC)S(=O)(=O)c1cccc(C(=O)OCC(=O)c2ccc3c(c2)OCCO3)c1
AC50 [1]: > 100 µM (inactive)

CCc1cccc2c(C(=O)CN3C(=O)C(=O)N(C4CCCC4)C3=O)c[nH]c12
AC50 [1]: 32.3 µM (active)

Cc1cc(C)c2nc(NNC(=O)c3cc(=O)c4ccccc4o3)sc2c1
IC50 [2]: 4.41 µM (active)
EC50 [3]: 0.296 µM (active)
EC50 (Streptococcus): 7.16 µM (active)
IC50 [4]: 28.2 µM (active)
EC50 (Streptokinase A): > 150 µM (not active)

CCCN1C(=O)/C(=C/c2c(NCCCOC(C)C)nc3c(C)cccn3c2=O)SC1=S
EC50 [5]: 34.2 µM (inactive)
IC50 (Prothrombin): 0.148 µM (active)
EC50 [6]: 16 µM (active)
IC50 [7]: 0.09 µM (active)
IC50 [8]: > 100 µM (inactive)

NN=C1c2ccccc2C(=O)C1C(=O)C(c1ccccc1)c1ccccc1 (stereo not drawn)
IC50 [2]: 13.8 µM (active)
IC50 [4]: 25.5 µM (active)

CCCCCCCCCCCC1NC(N)=NC(CCCO)=C1C(=O)OC (stereo not drawn)
IC50 (Prothrombin): 42.3 µM (active)
AC50 [9]: 7.72 µM (active)
IC50 [10]: > 66.6 µM (inactive)
IC50 [11]: 10.1 µM (active)
IC50 [7]: 19.9 µM (active)
IC50 [8]: 85.8 µM (active)

CN1CCC[C@H]1CCNc1ccc2c(=O)c3ccccc3n(C)c2c1
AC50 [9]: 2.17 µM (active)
CC50 (Vero): 30.7 µM (active)
AC50 [12]: 5.81 µM (active)
